Earlier results in paper PMC9186412, “Rational Framework for the Design of Trp- and Arg-Rich Peptide Antibiotics Against Multidrug-Resistant Bacteria” (Frontiers in Microbiology, 2022).
Read-outs that look alike come from different tables or passages of the source.

System: CDC AR isolates
Design: key: S (green), susceptible; I (blue), intermediate; R (red), resistant
Settings: data provided by the CDC, ref CDC, cited from earlier work
From the text: Supplement Table_3.XLSX, sheet "CDC AR isolates profiles" | column: G(-) strains

[1] = Acinetobacter baumannii AB273, CDC AR isolate
[2] = Acinetobacter baumannii AB274, CDC AR isolate
[3] = Acinetobacter baumannii AB275, CDC AR isolate
[4] = Acinetobacter baumannii AB276, CDC AR isolate
[5] = Enterobacter cloacae E62, CDC AR isolate
[6] = Enterobacter cloacae E544, CDC AR isolate
[7] = Enterobacter cloacae E545, CDC AR isolate
[8] = Enterobacter cloacae E546, CDC AR isolate
[9] = Escherichia coli EC541, CDC AR isolate
[10] = Escherichia coli EC543, CDC AR isolate
[11] = Escherichia coli EC544, CDC AR isolate
[12] = Escherichia coli EC549, CDC AR isolate
[13] = Klebsiella pneumoniae KP542, CDC AR isolate
[14] = Klebsiella pneumoniae KP548, CDC AR isolate
[15] = Klebsiella pneumoniae KP550, CDC AR isolate
[16] = Klebsiella pneumoniae KP552, CDC AR isolate
[17] = Pseudomonas aeruginosa PA229, CDC AR isolate
[18] = Pseudomonas aeruginosa PA230, CDC AR isolate
[19] = Pseudomonas aeruginosa PA231, CDC AR isolate
[20] = Pseudomonas aeruginosa PA232, CDC AR isolate
[21] = Pseudomonas aeruginosa PA239, CDC AR isolate

Compound | Antibiotic susceptibility profile [1] | Antibiotic susceptibility profile [2] | Antibiotic susceptibility profile [3] | Antibiotic susceptibility profile [4] | Antibiotic susceptibility profile [5] | Antibiotic susceptibility profile [6] | Antibiotic susceptibility profile [7] | Antibiotic susceptibility profile [9] | Antibiotic susceptibility profile [10] | Antibiotic susceptibility profile [11] | Antibiotic susceptibility profile [12] | Antibiotic susceptibility profile [13] | Antibiotic susceptibility profile [14] | Antibiotic susceptibility profile [15] | Antibiotic susceptibility profile [16] | Antibiotic susceptibility profile [17] | Antibiotic susceptibility profile [18] | Antibiotic susceptibility profile [19] | Antibiotic susceptibility profile [20] | Antibiotic susceptibility profile [21] | also measured
C[C@@H](O)[C@H]1C(=O)N2C(C(=O)O)=C(SCCN=CN)C[C@H]12 [Imipenem] | R | R | R | S | S | R | I | I | S | R | I | I | R | R | R | R | R | R | R | R | Antibiotic susceptibility profile [8]: R
C[C@H]1[C@H](NC(=O)/C(=N\OC(C)(C)C(=O)O)c2csc(N)n2)C(=O)N1S(=O)(=O)O [Azreonam] | – | – | – | – | – | – | – | R | R | R | R | R | R | R | R | R | S | R | S | R | –
CO/N=C(\C(=O)N[C@@H]1C(=O)N2C(C(=O)[O-])=C(C[N+]3(C)CCCC3)CS[C@H]12)c1csc(N)n1 [Cefepime] | R | R | R | R | S | R | R | R | R | R | R | R | R | R | R | R | R | R | S | R | Antibiotic susceptibility profile [8]: R
C[C@@H](O)[C@H]1C(=O)N2C(C(=O)O)=C(S[C@@H]3CN[C@H](C(=O)Nc4cccc(C(=O)O)c4)C3)[C@H](C)[C@H]12 [Ertapenem] | – | – | – | – | S | – | S | I | R | R | R | R | R | R | R | – | – | – | – | – | –
CO/N=C(\C(=O)N[C@@H]1C(=O)N2C(C(=O)O)=C(CSc3nc(=O)c(=O)[nH]n3C)CS[C@H]12)c1csc(N)n1 [Ceftriaxone] | R | R | R | R | R | R | R | R | R | R | R | R | R | R | R | – | – | – | – | – | Antibiotic susceptibility profile [8]: R
C/C(=C\C(=O)OCCCCCCCCC(=O)O)C[C@@H]1OC[C@H](C[C@@H]2O[C@H]2[C@@H](C)[C@H](C)O)[C@@H](O)[C@H]1O [Mupirocin] | – | – | – | – | – | – | – | – | – | – | – | – | – | – | – | – | – | – | – | – | Antibiotic susceptibility profile (Staphylococcus aureus SA561, CDC AR isolate): R
O=C(O)c1cn(C2CC2)c2cc(N3CCNCC3)c(F)cc2c1=O [Ciprofloxacin] | R | R | R | R | – | – | – | – | – | – | – | – | – | – | – | R | R | R | R | R | –
CN(C)c1ccc(O)c2c1C[C@H]1C[C@H]3[C@H](N(C)C)C(O)=C(C(N)=O)C(=O)[C@@]3(O)C(O)=C1C2=O [Minocycline] | I | I | I | S | – | – | – | – | – | – | – | – | – | – | – | – | – | – | – | – | –
C[C@@H](O)[C@H]1C(=O)N2C(C(=O)O)=C(S[C@@H]3CN[C@H](CNS(N)(=O)=O)C3)[C@H](C)[C@H]12 [Doripenem] | R | R | R | R | S | R | S | S | I | R | R | I | R | R | R | R | R | R | S | R | Antibiotic susceptibility profile [8]: R
CO/N=C(\C(=O)N[C@@H]1C(=O)N2C(C(=O)O)=C(COC(C)=O)CS[C@H]12)c1csc(N)n1 [Cefotaxime] | R | R | R | R | R | R | R | R | R | R | R | R | R | R | R | – | – | – | – | – | Antibiotic susceptibility profile [8]: R
CCN1CCN(C(=O)N[C@@H](C(=O)N[C@@H]2C(=O)N3[C@@H]2SC(C)(C)[C@@H]3C(=O)O)c2ccccc2)C(=O)C1=O [Piperacillin] | R | R | R | R | – | – | – | – | – | – | – | – | – | – | – | R | R | R | S | R | –
